From patent US20210205225A1, “BIOAVAILABLE ORAL DOSAGE FORMS” (PTC Therapeutics, Inc., priority 2018, published 2021)
Converted amounts (≈) assume the structure as drawn.

What was measured:
[1] = Phase 1 single-dose lipid capsule PK and food effect study; type: in vivo, human
From the text: (§1) Compound 1 has been evaluated in a Phase 1, randomized, placebo-controlled, escalating, single-dose, safety, tolerability, PK, and food effect study in healthy adult volunteers. Compound 1 was provided in lipid-filled gelatin capsules. The primary objective of the study was to determine a dose range for Compound 1 that safely achieved pharmacologically active target plasma concentrations (as determined from xenograft studies) and that was appropriate for use in a subsequent multiple-dose study.
(§2) Subjects in the study were enrolled in 2 stages. In Stage 1, 40 subjects were accrued in 5 cohorts of 8 subjects with each cohort receiving a sequentially higher single dose of Compound 1 at dose levels of 0.03, 0.1, 0.3, 1, and 3 mg/kg. Within a cohort, 6 subjects (3 males and 3 females) received Compound 1 and 2 subjects (1 male and 1 female) received placebo. An additional 12 subjects (6 males and 6 females) were enrolled in Stage 2 to evaluate the effect of food on the PK of Compound 1.
(§3) During both Stages 1 and 2 of the study, data regarding adverse events, vital signs, blood counts, coagulation assessments, blood chemistry determinations, urinalyses, and ECGs were collected at baseline and repeatedly over 72 hours after administration of the study medication, and again at a follow-up visit 7 days after the last study treatment. In both Stages 1 and 2, blood samples for assessment of plasma Compound 1 concentrations were collected at multiple timepoints. Compound 1 concentrations were analyzed using LC-MS/MS, validated for human plasma. Blood for measurement of plasma DHODH levels are collected at multiple time points. Plasma DHODH concentrations are analyzed using a clinically validated ELISA (R&D Systems). Similarly, blood for measurement of plasma VEGF-A levels was collected at multiple time points. Plasma VEGF-A concentrations were analyzed using a clinically validated ELISA (R&D Systems).

[2] = Clinical BA/BE and food effect study, PVP SDI Formulation tablets vs Lipid Formulation capsules, PK; type: in vivo, human
Method: The PVP SDI Formulation tablets prepared in Example 13 were compared to the Lipid Formulation capsules prepared in Example 7 in a clinical BA/BE (bioequivalence/bioavailability) study that evaluated the effect of food on the bioavailability of the PVP SDI Formulation tablets.
(§4) Compound 1 was administered as a single-dose in Lipid Formulation capsules or as PVP SDI Formulation tablets. The primary objective of the study was to determine the comparative single-dose PK and safety profiles of Compound 1 administered in the 2 formulations. The study was also aimed to study of the food effect on the PK and safety profiles for the PVP SDI Formulation tablet.
(§5) Subjects in the study were enrolled in 3 stages. In Stage 1, 24 subjects were randomly accrued into 3 cohorts of 8 subjects receiving Compound 1 in both the Lipid Formulation capsule and the PVP SDI Formulation tablet at dose levels of 0.5 mg/kg, 1 mg/kg, and 2 mg/kg. In Stage 2, 24 subjects were accrued in 3 cohorts of 8 subjects with each cohort receiving a sequentially higher doses of Compound 1 in the PVP SDI Formulation tablet at dose levels of 400, 800, and 1600 mg. An additional 12 subjects (6 males and 6 females) were enrolled in Stage 3 to evaluate the effect of food on the PK of Compound 1 when administered at 400 mg and 1000 mg in the PVP SDI Formulation tablet.
(§6) During the study, data regarding adverse events, vital signs, blood counts, coagulation assessments, blood chemistry determinations, urinalyses, and ECGs were collected at baseline and repeatedly over 72 hours after administration of the study medication, and again at a follow-up visit 7 days after the last study treatment. Blood samples for assessment of plasma Compound 1 concentrations were collected at multiple timepoints. Compound 1 concentrations were analyzed using LC-MS/MS, validated for human plasma.

[3] = Phase 1 single-dose lipid capsule study, safety and tolerability; type: in vivo, human
From the text: as §1, §2, §3

[4] = Clinical BA/BE and food effect study, safety; type: in vivo, human
Method: as §4, §5, §6

[5] = Solubility of the SDI and a surfactant (5% w/w) in aqueous solution, saturated, RT; type: physicochemical
Method: Aqueous suspensions (5% w/w) of the crystalline Compound 1b and the amorphous SDI were prepared in saturated solutions with surfactants selected from SDS, Poloxamer 188, Poloxamer 407, Gelucire 44/14 and Gelucire 50/13.
The solution was not sufficiently translucent to determine when sufficient material was added to provide the saturated solution. As a result, the solution was allowed to stand so that the excess Gelucire settled, and the supernatant was recovered and used for the solubility study. The exact concentration of Gelucire 50/13 in the solution was unknown.

[6] = solid formulation, higher doses
[7] = saturated in 5% w/w Gelucire 44/14 aqueous solution, 0 hrs
[8] = saturated in 5% w/w Gelucire 44/14 aqueous solution, 24 hrs
[9] = saturated in 5% w/w Poloxamer 188 aqueous solution, 0 hrs
[10] = saturated in 5% w/w SDS aqueous solution, 0 hrs
[11] = saturated in 5% w/w SDS aqueous solution, 24 hrs
[12] = saturated in Gelucire 50/13 supernatant solution, 0 hrs
[13] = saturated in Gelucire 50/13 supernatant solution, 24 hrs

SMILES: COc1ccc([C@H]2c3[nH]c4ccc(Cl)cc4c3CCN2C(=O)Oc2ccc(Cl)cc2)cc1 [Compound 1, 4-chlorophenyl (S)-6-chloro-1-(4-methoxyphenyl)-1,3,4,9-tetrahydro-2H-pyrido[3,4-b]indole-2-carboxylate]
- increases in mean Cmax values with dose ([1]; Stage 1, 0.03-3 mg/kg): generally dose proportional
- increase of mean Cmax by high-fat, high-calorie meal ([1]; Stage 2, 1 mg/kg): about 40%
- Tmax ([1]; both sexes, human, plasma, oral, lipid capsules, single dose): 3 to 6 h
- half-life ([1]; both sexes, human, plasma, oral, lipid capsules, single dose, read-out: terminal half-life (t1/2β)): 1680 to 3360 min
- low concentrations still evident in plasma ([1]; lipid capsules, 3.0-mg/kg dose): ≥ 168 h
- persistence of concentrations in plasma ([1]; lipid capsules, doses 0.30 mg/kg): ≥ 72 h
- mean Cmax after a high-fat, high-calorie meal ([1]; lipid capsules, fed vs fasted): increased
- lag time to appearance in plasma ([1]; lipid-filled gelatin capsules, single dose): about 30 minutes
- mean Cmax after a high-fat, high-calorie meal ([2]; PVP SDI Formulation tablet, fed vs fasted): increased
- increase of mean Cmax and AUC by high-fat, high-calorie meal ([2]; Stage 3, 400 mg or 1000 mg, PVP SDI Formulation tablet): about 100%
- half-life ([2]; human, plasma, oral, PVP SDI Formulation tablet, Stage 2): 1.58 to 2.71 days
- Tmax ([2]; human, plasma, oral, single dose): 3 to 7 h
- concentrations still evident in plasma [2, 6]: ≥ 168 h
- lag time to appearance in plasma [2, 6]: about 30 minutes
- persistence of concentrations in plasma [2, 6]: ≥ 72 h
- treatment-emergent adverse event: nausea, subjects receiving Compound 1 ([3]; Stage 1): 4 subjects
- treatment-emergent adverse event: headache ([3]; Stage 1, 40 subjects dosed): 9 episodes in 8 subjects
- adverse event: back pain ([3]; Stage 2): 2 episodes in 2 subjects
- adverse event: headaches ([3]; Stage 2): 3 episodes in 3 subjects
- severity of adverse events ([3]; all except 1 case of Grade 2 diarrhea at 1 mg/kg fasted, Stage 2): Grade 1
- hematology, coagulation, chemistry parameters ([3]; both stages): No clinically significant changes
- physical examinations, vital sign measurements, ECGs ([3]; both stages): no safety concerns
- deaths or serious adverse events ([3]; in vivo): No deaths or serious adverse events
- tolerability ([3]; single dose, lipid capsules): generally well tolerated
- laboratory abnormality in 1 subject ([4]; Stage 1, 2 mg/kg in the Lipid Capsule Formulation, considered unlikely to be drug related): Grade 3 elevation of serum creatine kinase
- physical examinations, vital sign measurements, ECGs ([4]; all 3 stages): no safety concerns
- deaths or serious adverse events ([4]; human, in vivo): No deaths or serious adverse events
- tolerability ([4]; single dose, lipid capsules or PVP SDI tablets): generally well tolerated

SMILES: COc1ccc([C@H]2c3[nH]c4ccc(Cl)cc4c3CCN2C(=O)Oc2ccc(Cl)cc2)cc1 [Sample 2]
- solubility at 24 h ([5]; 5% w/w Poloxamer 188 aqueous solution, aqueous with cosolvent or surfactant or cyclodextrin, thermodynamic from solid, saturated in 5% w/w Poloxamer 188 aqueous solution, 24 hrs): 4.3 µg/mL (≈ 9.2 µM)
- Solubility [5, 7]: 142.5 µg/mL (≈ 305 µM)
- Solubility [5, 8]: 58.4 µg/mL (≈ 125 µM)
- Solubility [5, 9]: 0.7 µg/mL (≈ 1.5 µM)
- Solubility [5, 10]: 224.7 µg/mL (≈ 481 µM)
- Solubility [5, 11]: 32.4 µg/mL (≈ 69.3 µM)
- Solubility [5, 12]: 677.4 µg/mL (≈ 1450 µM)
- Solubility [5, 13]: 371.5 µg/mL (≈ 795 µM)

SMILES: COc1ccc([C@H]2c3[nH]c4ccc(Cl)cc4c3CCN2C(=O)Oc2ccc(Cl)cc2)cc1 [Compound 1b]
- Solubility [5, 7]: 14.7 µg/mL (≈ 31.5 µM)
- Solubility [5, 8]: 23.6 µg/mL (≈ 50.5 µM)
- Solubility [5, 9]: 0.2 µg/mL (≈ 0.428 µM)
- Solubility [5, 10]: 2.4 µg/mL (≈ 5.14 µM)
- Solubility [5, 11]: 6.2 µg/mL (≈ 13.3 µM)
- Solubility [5, 12]: 7.8 µg/mL (≈ 16.7 µM)
- Solubility [5, 13]: 23.0 µg/mL (≈ 49.2 µM)
